Results taken from patent US10703764B2, “Benzopiperazine compositions as BET bromodomain inhibitors” (FORMA Therapeutics, Inc., priority 2013, dated 2020).
Read-outs that look alike come from different tables or passages of the source.

Experiments:
[1] = target: T1, BRD4 BD2 (Homo sapiens, UniProt O60885); experiment: AlphaScreen binding assay, BRD4 Bromodomain 2
T1 construct: made in house
In short: (§1)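 Compound dilution series were mixed with His-tagged BRD4 bromodomain and biotinylated tetra-acetylated H4 (1-21) peptide at pH 7.3 (BD1 and peptide at 50 nM, BD2 and peptide at 100 nM). Donor and acceptor beads were then added, and plates were equilibrated at least 1 h before reading. IC50 values were fitted with a four-parameter logistic model.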

[2] = test system: MV4-11 cells; experiment: Oncology cell growth assay (3-day proliferation, CellTiter-Glo); format: cell-based; details: Homo sapiens, AML cell line MV4-11, 72 hours, compounds grouped by IC50 range, read-out: MV4-11 IC50 (inhibition of proliferation, gIC50)
Protocol: The impact of Example compounds on cancer cell proliferation was determined using the acute myelocytic leukemia (AML) cell line MV4-11 (ATCC) in a 3-day proliferation assay. MV4-11 cells were maintained in RPMI 1640 media supplemented with 10% FBS at 37° C. and an atmosphere of 5% CO2. For compound testing, compound dilutions series were prepared in DMSO via a 3-fold serial dilution from 2 mM to 0.001 mM in 384-well white flat bottom plates. The final compound concentrations in the wells were 10, 3.3, 1.1, 0.37, 0.12, 0.041, 0.013 and 0.0045 μM. MV4-11 cells were plated at a density of 3000 cells/well in final volume of 50 μl culture media and incubated for 72 hours. […] Luminescent signal from the CellTiter-Glo assay was read on an EnVision multilabel plate reader (PerkinElmer). Values for the concentration that inhibited cell growth by 50% (gIC50) between the DMSO control and background control (no cells) were determined using IDBS Activity Base software with a four parameter logistic curve fit by the equation y=A+((B−A)/(1+((C/x)^D))), wherein A denotes the bottom plateau of the curve, B denotes the top plateau of the curve, C denotes the x value at the middle of the curve, D denotes the slope factor, x denotes the original known x values, and y denotes the original known y values. Data was fitted using the Levenburg Marquardt algorithm.

[3] = target: T2, BRD4 BD1 (Homo sapiens, UniProt O60885); experiment: AlphaScreen binding assay, BRD4 Bromodomain 1
T2 construct: made in house
In short: as §1

SMILES | IC50 [1] [nM] | IC50 ([2]; MV4-11, 72 h) [nM] | IC50 [3] [nM] | IC50 [2] [nM]
CC(=O)N1c2ccc(-c3cnn(CC4CC4(F)F)c3)cc2N(C(=O)OC(C)C)C[C@@H]1C (stereo partly drawn) [Example I-678] | 50 to 500 | 100 to 500 | 100 to 1000 | 
CC(=O)N1c2ccc(-c3ccc4c(c3)N(C)S(=O)(=O)N4)cc2N(C(=O)C2CC2)C[C@@H]1C [Example I-1175] | 50 to 500 | > 500 | 100 to 1000 | 
CC(=O)N1c2ccc(-c3cnn(C4CC4)c3)cc2N(C(=O)OC2CCC(F)(F)CC2)C[C@@H]1C [Example I-33, (S)-4,4-difluorocyclohexyl 4-acetyl-7-(1-cyclopropyl-1H-pyrazol-4-yl)-3-methyl-3,4-dihydroquinoxaline-1(2H)-carboxylate] | 50 to 500 | 100 to 500 | 100 to 1000 | 
COCCn1cc(-c2ccc3c(c2)N(C(=O)OC(C)C)C[C@H](C)N3C(=O)OC)cn1 [Example I-323] | 50 to 500 | 100 to 500 | 100 to 1000 | 
CC(=O)N1c2ccc(-c3cnn(C4CC4)c3)cc2N(c2nn(C)c3ccc(F)cc23)C[C@@H]1C [Example I-55, (S)-1-(6-(1-cyclopropyl-1H-pyrazol-4-yl)-4-(5-fluoro-1-methyl-1H-indazol-3-yl)-2-methyl-3,4-dihydroquinoxalin-1(2H)-yl)ethanone] | < 50 | 100 to 500 | 100 to 1000 | 
CC(=O)N1c2ccc(-c3ccc(C4(O)COC4)cc3)cc2N(C(=O)OC(C)C)C[C@@H]1C [Example I-473] | 50 to 500 | 100 to 500 | 100 to 1000 | 
CC(=O)N1c2ccc(-c3ccc(NS(C)(=O)=O)c(F)c3)cc2N(C(=O)C2CC2)C[C@@H]1C [Example I-1180] | 50 to 500 | > 500 | 100 to 1000 | 
CC(=O)N1CCN(C(=O)c2ccc(-c3ccc4c(c3)N(C(=O)OC(C)C)C[C@H](C)N4C(C)=O)cc2)CC1 [Example I-548] | 50 to 500 | < 100 | 100 to 1000 | 
CC(=O)N1c2ccc(-c3cnn(C4CCNCC4)c3)cc2N(c2nn(C)c3ccccc23)C[C@@H]1C [Example I-181, 1-[(2S)-2-methyl-4-(1-methyl-1H-indazol-3-yl)-6-[1-(piperidin-4-yl)-1H-pyrazol-4-yl]-1,2,3,4-tetrahydroquinoxalin-1-yl]ethan-1-one] | < 50 | < 100 | 100 to 1000 | 
CC(=O)N1c2ccc(-c3cnn(CC(F)F)c3)cc2N(C(=O)OC(C)C)C[C@@H]1C [Example I-135, (S)-isopropyl 4-acetyl-7-(1-(2,2-difluoroethyl)-1H-pyrazol-4-yl)-3-methyl-3,4-dihydroquinoxaline-1(2H)-carboxylate] | 50 to 500 | 100 to 500 | 100 to 1000 | 
CC(=O)N1c2ccc(-c3cnn(C4CC4)c3)cc2N(C(=O)Oc2cccc3nccnc23)C[C@@H]1C [Example I-1204] | < 50 | < 100 | 100 to 1000 | 
CC(=O)N1c2ccc(-c3ccc(S(=O)(=O)N(C)C)cc3)cc2N(C(=O)OC2CCCCC2)C[C@@H]1C [Example I-1263] | 50 to 500 | 100 to 500 | 100 to 1000 | 
CCOC(=O)N1C[C@H](C)N(C(C)=O)c2ccc(-c3ccc(S(=O)(=O)C4CC4)cc3)cc21 [Example I-1033] | 50 to 500 | 100 to 500 | 100 to 1000 | 
CC(=O)N1c2ccc(-c3ccc(-c4ncc[nH]4)cc3)cc2N(C(=O)c2ccco2)CC1C (stereo not drawn) [Example I-429] | < 50 | 100 to 500 | 100 to 1000 | 
CC(=O)N1c2ccc(-c3ccc(S(=O)(=O)NCCO)cc3)cc2N(C(=O)OC2CCOCC2)C[C@@H]1C [Example I-1218] | 50 to 500 | 100 to 500 | 100 to 1000 | 
CC(=O)N1c2cc(N)c(-c3cnn(C4CC4)c3)cc2N(C(=O)OC(C)C)C[C@@H]1C [Example I-206, Isopropyl (S)-4-acetyl-6-amino-7-(1-cyclopropyl-1H-pyrazol-4-yl)-3-methyl-3,4-dihydroquinoxaline-1(2H)-carboxylate] | < 50 | 100 to 500 | 100 to 1000 | 
CC(=O)N1c2ccc(-c3ccc(S(=O)(=O)N4CCC4)cc3)cc2N(C(=O)c2ccco2)C[C@@H]1C [Example I-289] | < 50 | 100 to 500 | 100 to 1000 | 
CC(=O)N1c2ccc(-c3ccc(C(=O)NCc4ncco4)cc3)cc2N(C(=O)OC(C)C)C[C@@H]1C [Example I-584] | 50 to 500 | 100 to 500 | 100 to 1000 | 

SMILES | IC50 [1] [nM] | IC50 ([2]; MV4-11, 72 h) [nM] | IC50 [3] [nM] | IC50 [2] [nM]
CCN(CC)S(=O)(=O)c1cc(-c2ccc3c(c2)N(C(=O)OC(C)C)C[C@H](C)N3C(C)=O)ccc1OC [Example I-1115] | 50 to 500 | 100 to 500 | 100 to 1000 | 
CC(=O)N1c2ccc(-c3cnn(CC(F)F)c3)cc2N(C(=O)C2CC2)C[C@@H]1C [Example I-651] | 50 to 500 | > 500 | 100 to 1000 | 
CCOC(=O)N1C[C@H](C)N(C(C)=O)c2ccc(-c3ccc(S(=O)(=O)CC(C)C)cc3)cc21 [Example I-1080] | 50 to 500 | > 500 | 1000 to 10000 | 
CC(=O)N1c2ccc(-c3ccc(N4CCOCC4)cc3)cc2N(C(=O)OC2CCCCC2)C[C@@H]1C [Example I-1229] | 50 to 500 | 100 to 500 | 100 to 1000 | 
CC(C)OC(=O)N1C[C@H](C)N(C(=O)C2CC2)c2ccc(-c3cnn(CCN4CCCS4(=O)=O)c3)cc21 [Example I-611] | 50 to 500 | > 500 | 100 to 1000 | 
CC(=O)N1c2cc(F)c(-c3cnn(C4CC4)c3)cc2N(C(=O)OC(C)C)C[C@@H]1C [Example I-207, Isopropyl (S)-4-acetyl-7-(1-cyclopropyl-1H-pyrazol-4-yl)-6-fluoro-3-methyl-3,4-dihydroquinoxaline-1(2H)-carboxylate] | 50 to 500 | > 500 | 100 to 1000 | 
CC(=O)N1c2ccc(-c3ccc(S(C)(=O)=O)c(F)c3)cc2N(C(=O)OC2CCCCC2)C[C@@H]1C [Example I-1241] | 50 to 500 | 100 to 500 | 100 to 1000 | 
CC(=O)N1c2ccc(-c3ccc4c(c3)CS(=O)(=O)N4)cc2N(C(=O)OC(C)C)C[C@@H]1C [Example I-1179] | 50 to 500 | 100 to 500 | 100 to 1000 | 
COC(=O)N1c2ccc(-c3cnn(C4CC4)c3)cc2N(C(=O)OC2CCCC2)C[C@@H]1C [Example I-40, (S)-4-cyclopentyl 1-methyl 6-(1-cyclopropyl-1H-pyrazol-4-yl)-2-methyl-2,3-dihydroquinoxaline-1,4-dicarboxylate] | 50 to 500 |  | 100 to 1000 | 100 to 500
COc1ccc(-c2ccc3c(c2)N(C(=O)OC(C)C)C[C@H](C)N3C(C)=O)cc1NS(C)(=O)=O [Example I-1142] | 50 to 500 | 100 to 500 | 100 to 1000 | 
CCN(CC)S(=O)(=O)c1cc(-c2ccc3c(c2)N(C(=O)OC2CCOCC2)C[C@H](C)N3C(C)=O)ccc1OC [Example I-1258] | 50 to 500 | 100 to 500 | 100 to 1000 | 
CC(=O)N1c2ccc(-c3cnn(Cc4c[nH]cn4)c3)cc2N(C(=O)C2CC2)C[C@@H]1C [Example I-127, (S)-1-(6-(1-((1H-imidazol-4-yl)methyl)-1H-pyrazol-4-yl)-4-(cyclopropanecarbonyl)-2-methyl-3,4-dihydroquinoxalin-1(2H)-yl)ethanone] | < 50 | > 500 | 100 to 1000 | 
CC(=O)N1c2ccc(-c3cnn(C4COC4)c3)cc2N(C(=O)OC2CCCCC2)C[C@@H]1C [Example I-86, (S)-cyclohexyl 4-acetyl-3-methyl-7-(1-(oxetan-3-yl)-1H-pyrazol-4-yl)-3,4-dihydroquinoxaline-1(2H)-carboxylate] | 50 to 500 | < 100 | 100 to 1000 | 
CC(=O)N1c2ccc(-c3ccc(N4CCCS4(=O)=O)c(F)c3)cc2N(C(=O)C2CCC2)C[C@@H]1C [Example I-1154] | 50 to 500 | > 500 | 1000 to 10000 | 
CC(=O)N1c2ccc(-c3ccc4c(c3)CCN4S(C)(=O)=O)cc2N(C(=O)C2CC2)C[C@@H]1C [Example I-352] | < 50 | < 100 | < 100 | 
CC(=O)N1c2ccc(-c3cnn(CCN(C)C)c3)cc2N(C(=O)OC(C)C)C[C@@H]1C [Example I-129, (S)-isopropyl 4-acetyl-7-(1-(2-(dimethylamino)ethyl)-1H-pyrazol-4-yl)-3-methyl-3,4-dihydroquinoxaline-1(2H)-carboxylate] | 50 to 500 | 100 to 500 | 1000 to 10000 | 
COc1cc(F)ccc1OC(=O)N1C[C@H](C)N(C(C)=O)c2ccc(-c3cnn(C4CC4)c3)cc21 [Example I-1186] | < 50 | 100 to 500 | 100 to 1000 | 
